Assay results taken from PMC8859858 (Nanoscale, 2019).

Target: AdhD (AdhD-SP) (Pyrococcus furiosus, UniProt Q8TZM9)
Experiment: NADH disappearance at […] nm, Michaelis-Menten fit
Type: biochemical
Details: free enzyme; NADH (A340 ~1.8); 100 mM sodium phosphate pH 6.2; 50 °C

CC(=O)C(C)O (stereo not shown) [acetoin]
KM: The dependence of the reaction rate on acetoin followed Michaelis-Menten kinetics.
